Assays:
[1] = Inhibition of bacterial IMP-1 (1 to 246 residues) expressed in Escherichia coli Transetta (DE3) using FC-5 as substrate preincubated with enzyme for 10 mins followed by substrate addition by fluorescence based analysis; design: species or system Bacteria
[2] = tested on: Pseudomonas aeruginosa; experiment: Potentiation of meropenem-induced antibacterial activity against Pseudomonas aeruginosa W35 expressing VIM-2 assessed as meropenem MIC at 100 ug/ml incubated for 18 to 20 hrs in presence of meropenem by CLSI based broth microtiter dilution method (reference value: 64 ug/ml); assay type: functional; settings: dose 100 µg/ml, time 18-20 hrs
[3] = tested on: Escherichia coli; experiment: Potentiation of meropenem-induced antibacterial activity against Escherichia coli C1580 expressing VIM-2 assessed as fold reduction in meropenem MIC at 10 ug/ml incubated for 18 to 20 hrs by CLSI based broth microtiter dilution method; assay type: functional; settings: dose 10 µg/ml; time 18-20 hrs
[4] = tested on: Pseudomonas aeruginosa; experiment: Potentiation of meropenem-induced antibacterial activity against Pseudomonas aeruginosa W35 expressing VIM-2 assessed as fold reduction in meropenem MIC at 100 ug/ml incubated for 18 to 20 hrs by CLSI based broth microtiter dilution method; assay type: functional; settings: dose 100 µg/ml; time 18-20 hrs
[5] = tested on: Escherichia coli; experiment: Potentiation of meropenem-induced antibacterial activity against Escherichia coli C1541 expressing IMP-1 assessed as fold reduction in meropenem MIC at 10 ug/ml incubated for 18 to 20 hrs by CLSI based broth microtiter dilution method; assay type: functional; settings: dose 10 µg/ml; time 18-20 hrs
[6] = Inhibition of bacterial recombinant full length C-terminal-TEV-His6-tagged VIM-1 expressed in Escherichia coli Transetta using FC-5 as substrate preincubated with enzyme for 10 mins followed by substrate addition by fluorescence based analysis; design: species or system Bacteria
[7] = tested on: Pseudomonas aeruginosa; experiment: Potentiation of meropenem-induced antibacterial activity against Pseudomonas aeruginosa 5621 expressing VIM-2 assessed as meropenem MIC at 100 ug/ml incubated for 18 to 20 hrs in presence of meropenem by CLSI based broth microtiter dilution method (reference value: 64 ug/ml); assay type: functional; settings: dose 100 µg/ml, time 18-20 hrs
[8] = tested on: Escherichia coli; experiment: Potentiation of meropenem-induced antibacterial activity against Escherichia coli C1541 expressing VIM-2 assessed as fold reduction in meropenem MIC at 10 ug/ml incubated for 18 to 20 hrs by CLSI based broth microtiter dilution method; assay type: functional; settings: dose 10 µg/ml; time 18-20 hrs
[9] = tested on: Escherichia coli; experiment: Potentiation of meropenem-induced antibacterial activity against Escherichia coli C1541 expressing IMP-1 assessed as meropenem MIC at 10 ug/ml incubated for 18 to 20 hrs by broth microtiter dilution method (reference value: 32 ug/ml); assay type: functional; settings: dose 10 µg/ml, time 18-20 hrs
[10] = Inhibition of bacterial recombinant full length N-terminal-TEV-His6-tagged VIM-5 expressed in Escherichia coli Transetta using FC-5 as substrate preincubated with enzyme for 10 mins followed by substrate addition by fluorescence based analysis; design: species or system Bacteria
[11] = tested on: Escherichia coli; experiment: Potentiation of meropenem-induced antibacterial activity against Escherichia coli C1580 expressing VIM-2 assessed as meropenem MIC at 10 ug/ml incubated for 18 to 20 hrs by CLSI based broth microtiter dilution method (reference value: 32 ug/ml); assay type: functional; settings: dose 10 µg/ml, time 18-20 hrs
[12] = Inhibition of bacterial NDM-1 (1 to 270 residues) expressed in Escherichia coli Transetta (DE3) using FC-5 as substrate preincubated with enzyme for 10 mins followed by substrate addition by fluorescence based analysis; design: species or system Bacteria
[13] = Inhibition of bacterial VIM-2 (27 to 266 residues) expressed in Escherichia coli Transetta (DE3) using FC-5 as substrate preincubated with enzyme for 10 mins followed by substrate addition by fluorescence based analysis; design: species or system Bacteria
[14] = tested on: Escherichia coli; experiment: Potentiation of meropenem-induced antibacterial activity against Escherichia coli C1541 expressing VIM-2 assessed as meropenem MIC at 10 ug/ml incubated for 18 to 20 hrs by CLSI based broth microtiter dilution method (reference value: 16 ug/ml); assay type: functional; settings: dose 10 µg/ml, time 18-20 hrs
[15] = tested on: Escherichia coli; experiment: Potentiation of meropenem-induced antibacterial activity against Escherichia coli C1542 expressing VIM-2 assessed as fold reduction in meropenem MIC at 10 ug/ml incubated for 18 to 20 hrs by CLSI based broth microtiter dilution method; assay type: functional; settings: dose 10 µg/ml; time 18-20 hrs
[16] = tested on: Pseudomonas aeruginosa; experiment: Potentiation of meropenem-induced antibacterial activity against Pseudomonas aeruginosa 5621 expressing VIM-2 assessed as fold reduction in meropenem MIC at 100 ug/ml incubated for 18 to 20 hrs by CLSI based broth microtiter dilution method; assay type: functional; settings: dose 100 µg/ml; time 18-20 hrs
[17] = tested on: Escherichia coli; experiment: Potentiation of meropenem-induced antibacterial activity against Escherichia coli C1542 expressing VIM-2 assessed as meropenem MIC at 10 ug/ml incubated for 18 to 20 hrs by CLSI based broth microtiter dilution method (reference value: 16 ug/ml); assay type: functional; settings: dose 10 µg/ml, time 18-20 hrs
[18] = Inhibition of bacterial VIM-2 (27 to 266 residues) expressed in Escherichia coli Transetta (DE3) using FC-5 as substrate preincubated with enzyme for 10 mins followed by substrate addition in presence of 100 uM Zn2+ by fluorescence based analysis; design: species or system Bacteria
[19] = tested on: Escherichia coli; experiment: Synergistic antibacterial activity against Escherichia coli C1541 expressing VIM-2 assessed as fractional inhibitory concentration index incubated for 18 to 20 hrs in presence of meropenem and 100 uM of zinc sulfate by checkerboard microdilution assay; assay type: functional; settings: time 18-20 hrs
[20] = Inhibition of bacterial VIM-2 (27 to 266 residues) expressed in Escherichia coli Transetta (DE3) using FC-5 as substrate preincubated with enzyme for 10 mins followed by substrate addition in presence of 1 uM Zn2+ by fluorescence based analysis; design: species or system Bacteria
[21] = tested on: Pseudomonas aeruginosa; experiment: Synergistic antibacterial activity against Pseudomonas aeruginosa W35 expressing VIM-2 assessed as fractional inhibitory concentration index incubated for 18 to 20 hrs in presence of meropenem by checkerboard microdilution assay; assay type: functional; settings: time 18-20 hrs
[22] = tested on: Escherichia coli; experiment: Synergistic antibacterial activity against Escherichia coli C1541 expressing VIM-2 assessed as fractional inhibitory concentration index incubated for 18 to 20 hrs in presence of meropenem by checkerboard microdilution assay; assay type: functional; settings: time 18-20 hrs
[23] = tested on: Escherichia coli; experiment: Synergistic antibacterial activity against Escherichia coli C1541 expressing VIM-2 assessed as fractional inhibitory concentration index incubated for 18 to 20 hrs in presence of meropenem and 1 uM of zinc sulfate by checkerboard microdilution assay; assay type: functional; settings: time 18-20 hrs
[24] = Solubility of the compound in water; assay type: physicochemical
[25] = tested on: Escherichia coli; experiment: Potentiation of meropenem-induced antibacterial activity against Escherichia coli C1541 expressing IMP-1 assessed as fold reduction in meropenem MIC at 100 ug/ml incubated for 18 to 20 hrs by CLSI based broth microtiter dilution method; assay type: functional; settings: dose 100 µg/ml; time 18-20 hrs

SMILES	IC50 [1]	MIC [2]	fold change (FC) [3]	fold change (FC) [4]	fold change (FC) [5]	IC50 [6]	MIC [7]	fold change (FC) [8]	MIC [9]	IC50 [10]	MIC [11]	IC50 [12]	IC50 [13]	MIC [14]	fold change (FC) [15]	fold change (FC) [16]	MIC [17]	also measured
Cc1cnc(C(=O)O)n1Cc1ccccc1	86.5 µM	16 µg/mL	32	4	1	3.18 µM	32 µg/mL	>64	32 µg/mL	2200 nM	1 µg/mL	29.7 µM	480 nM	< 0.25 µg/mL	32	2	0.5 µg/mL	–
C=CCCn1c(C)cnc1C(=O)O	48.6 µM	–	4	–	1	37.3 µM	–	16	32 µg/mL	3770 nM	8 µg/mL	144 µM	800 nM	1 µg/mL	8	–	2 µg/mL	–
C=CCCn1ccnc1C(=O)O	> 300 µM	–	1	–	1	14.8 µM	–	1	32 µg/mL	4720 nM	32 µg/mL	> 300 µM	1050 nM	16 µg/mL	2	–	8 µg/mL	–
Nc1nc2c(Cn3ccnc3C(=O)O)cccc2s1	217 µM	64 µg/mL	32	1	1	1.89 µM	64 µg/mL	32	32 µg/mL	1040 nM	1 µg/mL	131 µM	160 nM	0.5 µg/mL	>64	1	< 0.25 µg/mL	–
O=C(O)c1nccn1Cc1cc(Br)cs1	20.3 µM	32 µg/mL	8	2	1	24.9 µM	64 µg/mL	8	32 µg/mL	2470 nM	4 µg/mL	111 µM	430 nM	2 µg/mL	4	1	4 µg/mL	–
O=C(O)c1nccn1Cc1ccc(O)cc1	9.55 µM	16 µg/mL	8	4	1	5.04 µM	64 µg/mL	16	32 µg/mL	1120 nM	4 µg/mL	118 µM	170 nM	1 µg/mL	>64	1	< 0.25 µg/mL	–
O=C(O)c1nccn1Cc1ccccc1	32.1 µM	32 µg/mL	2	2	1	4.14 µM	64 µg/mL	1	32 µg/mL	1550 nM	16 µg/mL	63.5 µM	480 nM	16 µg/mL	1	1	16 µg/mL	–
NCc1ccc(Cn2ccnc2C(=O)O)cc1	75.5 µM	16 µg/mL	2	4	1	8.55 µM	32 µg/mL	2	32 µg/mL	18200 nM	16 µg/mL	165 µM	3890 nM	8 µg/mL	1	2	16 µg/mL	–
Nc1nc2ccc(Cn3ccnc3C(=O)O)cc2s1	14.4 µM	16 µg/mL	>128	4	1	13.6 µM	64 µg/mL	>64	32 µg/mL	380 nM	< 0.25 µg/mL	178 µM	19 nM	< 0.25 µg/mL	>64	1	< 0.25 µg/mL	IC50 [18]: 76 nM; fractional inhibitory concentration index (FICI) [19]: 0.03; IC50 [20]: 14 nM; fractional inhibitory concentration index (FICI) [21]: 0.125; fractional inhibitory concentration index (FICI) [22]: 0.02; fractional inhibitory concentration index (FICI) [23]: 0.02; solubility [24]: < 2500 µg/mL
N#Cc1ccc(Cn2ccnc2C(=O)O)cc1	30.1 µM	32 µg/mL	32	2	1	8.69 µM	64 µg/mL	>64	32 µg/mL	120 nM	1 µg/mL	227 µM	290 nM	< 0.25 µg/mL	>64	1	< 0.25 µg/mL	–
COc1ccc(Cn2ccnc2C(=O)O)cc1	10.9 µM	16 µg/mL	32	4	1	13 µM	64 µg/mL	32	32 µg/mL	840 nM	1 µg/mL	157 µM	380 nM	0.5 µg/mL	>64	1	< 0.25 µg/mL	–
O=C(O)c1nccn1Cc1cc(Br)cc(Br)c1	0.085 µM	16 µg/mL	8	4	2	1.37 µM	32 µg/mL	32	16 µg/mL	53 nM	4 µg/mL	98.9 µM	14 nM	0.5 µg/mL	16	2	1 µg/mL	IC50 [18]: 110 nM; fold change (FC) [25]: 8; fractional inhibitory concentration index (FICI) [19]: 0.06; IC50 [20]: 48 nM; fractional inhibitory concentration index (FICI) [22]: 0.05; fractional inhibitory concentration index (FICI) [23]: 0.06

Source: ChEMBL document CHEMBL5154646, “Structure-guided optimization of 1H-imidazole-2-carboxylic acid derivatives affording potent VIM-Type metallo-β-lactamase inhibitors” (Eur J Med Chem, 2022)
